“Also recorded” adds a separate entry of the source. Like-named read-outs stand apart in the source and are kept apart here.
Legend:
[1] = cats and rats; highest dose tested; Gotti et al.; cited from earlier work
[2] = Spinal Nerve Ligation (SNL) model, mechanical allodynia (von Frey); assay type: in vivo, Sprague-Dawley rats; settings: for Injured paw - von Frey threshold: mean ± SEM
Procedure: Animals: Male Sprague-Dawley rats (Hsd:Sprague-Dawley®™SD®™, Harlan, Indianapolis, Ind., U.S.A.) weighing 100±10 g on surgery day and 250±10 g on testing day were housed three per cage. Animals had free access to food and water and were maintained on a 12:12 h light/dark schedule. The animal colony was maintained at 21° C. and 60% humidity. All experiments were conducted in accordance with the International Association for the Study of Pain guidelines and were approved by the University of Minnesota Animal Care and Use Committee.
Drugs and dosing solutions: The drugs were dissolved in 1% v/v DMSO and 66% v/v PEG 400 in distilled water. Compounds were administered by i.p. route.
Induction of chronic neuropathic pain: The Spinal Nerve Ligation (SNL) model (Kim and Chung 1992 Pain 50:355-63.) was used to induce chronic neuropathic pain. The animals were anesthetized with isoflurane, the left […] transverse process was removed, and the L5 and L6 spinal nerves were tightly ligated with 6-0 silk suture. The wound was then closed with internal sutures and external staples. Wound clips were removed 10 days following surgery.
Mechanical allodynia testing: Baseline and post-treatment values for non-noxious mechanical sensitivity were evaluated using 8 Semmes-Weinstein filaments (Stoelting, Wood Dale, Ill., USA) with varying stiffness (0.4, 0.7, 1.2, 2.0, 3.6, 5.5, 8.5, and 15 g) according to the up-down method (Chaplan, Bach et al. 1994 J Neurosci Methods 53: 55-63). Animals were placed on a perforated metallic platform and allowed to acclimate to their surroundings for a minimum of 30 minutes before testing. The mean and standard error of the mean (SEM) were determined for each animal in each treatment group. Since this stimulus is normally not considered painful, significant injury-induced increases in responsiveness in this test are interpreted as a measure of mechanical allodynia.
(§1) Experimental design: von Frey baseline measurements were made 30 minutes and 24 hours prior to drug administration respectively. Additional von Frey measurements were made at 30, 60, 120 and 240 min. The timeline for testing is summarized below. The experimental groups were: ·vehicle (1% DMSO+66% PEG 400 in distilled water, i.p., 4 ml/kg, n=10)·30 mg/kg Compound 93-31 test (i.p., 4 ml/kg, n=10)·100 mg/kg Compound 93-31 test (i.p., 4 ml/kg, n=10)·30 mg/kg Compound 93-97 test (i.p., 4 ml/kg, n=10)·100 mg/kg Compound 93-97 test (i.p., 4 ml/kg, n=10)·100 mg/kg Gabapentin (i.p., 4 ml/kg, n=12) (Total rats: 62). [drawing 42]
Data analysis: Statistical analyses were conducted using Prism™ 4.01 (GraphPad, San Diego, Calif., USA). Mechanical allodynia of the injured paw was determined by comparing values observed in the contralateral and ipsilateral paws within the vehicle group. Stability of vehicle group injured paw values over time was tested using the Friedman two-way analysis of variance by rank. Drug effect was analyzed at each time point by carrying out a Kruskal-Wallis one-way analysis of variance by rank followed by a Dunn's post hoc test.
Testing for mechanical allodynia (von Frey) was initiated 14 days after SNL surgery. Tests were performed on both injured (ipsilateral) and normal (contralateral) paws at baseline (30 minutes before drug administration) and 30, 60, 120 and 240 minutes after a single drug administration.

[3] = Side effects observed in the SNL study; assay type: in vivo, Sprague-Dawley rats
Procedure: as §1
The side effects observed were writhing and stretching (8 observations). These side effects were most commonly seen for the first few minutes (˜5 minutes) following i.p. drug administration. […] Some side effects were observed while measuring the endpoints. The most common was stretching/writhing which may be a sign of some visceral pain or hypersensitivity. […] It seems likely to be associated with i.p. administration of the vehicle in a subset of animals. This seemed relatively rare, short lived (<5 min), and the magnitude was not large enough to interfere with measurement of the endpoint.

[4] = Locomotor activity of rats (light beam breaks); settings: for effects on locomotor activity (positive control): varying doses IP; for effects on locomotor activity: monitored 2 hours after injection
Procedure: The Locomotor Activity Index is the total number of beam breaks during the trial divided by 1000.
Locomotor activity was monitored after injection for 2 hours.

[5] = target: T1, NR1/NR2A (Rattus norvegicus, UniProt P35439+Q00959); settings: FIG. 4
T1 sequence (Q00959 23-1464, other chains not shown): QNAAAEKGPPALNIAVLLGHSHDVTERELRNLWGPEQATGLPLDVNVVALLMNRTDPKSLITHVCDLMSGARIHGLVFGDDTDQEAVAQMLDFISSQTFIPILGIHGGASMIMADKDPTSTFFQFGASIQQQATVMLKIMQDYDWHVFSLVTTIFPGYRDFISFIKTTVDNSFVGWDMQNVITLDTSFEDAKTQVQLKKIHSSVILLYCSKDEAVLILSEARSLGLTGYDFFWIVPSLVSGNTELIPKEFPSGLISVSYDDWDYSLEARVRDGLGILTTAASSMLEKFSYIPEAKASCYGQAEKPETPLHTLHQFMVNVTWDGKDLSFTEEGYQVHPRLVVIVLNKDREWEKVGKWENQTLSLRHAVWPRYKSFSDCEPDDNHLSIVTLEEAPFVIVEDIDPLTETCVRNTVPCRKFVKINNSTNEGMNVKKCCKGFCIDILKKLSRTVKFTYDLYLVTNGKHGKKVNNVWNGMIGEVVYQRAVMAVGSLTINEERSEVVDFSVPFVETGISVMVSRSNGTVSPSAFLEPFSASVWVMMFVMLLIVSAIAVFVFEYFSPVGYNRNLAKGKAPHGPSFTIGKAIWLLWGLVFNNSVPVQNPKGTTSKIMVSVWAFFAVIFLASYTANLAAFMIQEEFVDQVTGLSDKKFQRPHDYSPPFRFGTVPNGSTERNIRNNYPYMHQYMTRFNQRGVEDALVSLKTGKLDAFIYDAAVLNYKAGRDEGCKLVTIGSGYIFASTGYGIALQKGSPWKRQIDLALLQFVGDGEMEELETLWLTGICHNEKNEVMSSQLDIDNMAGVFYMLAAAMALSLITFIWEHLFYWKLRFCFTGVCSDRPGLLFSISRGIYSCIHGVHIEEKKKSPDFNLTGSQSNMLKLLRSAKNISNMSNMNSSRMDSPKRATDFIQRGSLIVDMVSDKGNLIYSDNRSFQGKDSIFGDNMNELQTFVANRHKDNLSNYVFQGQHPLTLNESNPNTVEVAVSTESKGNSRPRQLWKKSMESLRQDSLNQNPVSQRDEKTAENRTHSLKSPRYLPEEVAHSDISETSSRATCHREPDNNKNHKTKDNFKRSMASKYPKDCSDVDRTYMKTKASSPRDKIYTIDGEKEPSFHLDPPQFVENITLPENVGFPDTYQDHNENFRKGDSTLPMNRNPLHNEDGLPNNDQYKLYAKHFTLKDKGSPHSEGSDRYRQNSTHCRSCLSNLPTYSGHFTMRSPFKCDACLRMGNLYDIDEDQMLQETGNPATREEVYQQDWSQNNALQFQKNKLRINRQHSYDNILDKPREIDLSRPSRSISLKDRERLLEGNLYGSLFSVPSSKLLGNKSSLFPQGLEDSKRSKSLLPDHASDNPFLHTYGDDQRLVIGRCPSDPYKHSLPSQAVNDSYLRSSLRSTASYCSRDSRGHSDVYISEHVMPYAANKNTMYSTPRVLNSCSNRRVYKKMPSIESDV
Procedure: Stage V and VI oocytes were surgically removed from the ovaries of large, well-fed and healthy Xenopus laevis anesthetized with 3-amino-benzoic acid ethyl ester (1 gm/l). Clusters of oocytes were incubated with 292 U/ml Worthington (Freehold, N.J.) type IV collagenase or 1.3 mg/ml collagenase (Life Technologies, Gaithersburg, Md.; 17018-029) for 2 hr in Ca2+-free solution comprised of (in mM) 115 NaCl, 2.5 KCl, and 10 HEPES, pH 7.5, with slow agitation to remove the follicular cell layer. Oocytes were then washed extensively in the same solution supplemented with 1.8 mM CaCl2 and maintained in Barth's solution comprised of (in mM): 88 NaCl, 1 KCl, 24 NaHCO3, 10 HEPES, 0.82 MgSO4, 0.33 Ca(NO3)2, and 0.91 CaCl2 and supplemented with 100 ug/ml gentamycin, 40 ug/ml streptomycin, and 50 ug/ml penicillin. Oocytes were manually defolliculated and injected within 24 hr of isolation with 5 ng of NR1 subunit and 10 ng of NR2 subunit in a 50 nl volume, and incubated in Barth's solution at 18° C. for 3-7 d. Glass injection pipettes had tip sizes ranging from 10-20 microns, and were backfilled with mineral oil.
These stock solutions were subsequently diluted to the appropriate concentration range in a working solution comprised of 90 mM NaCl, 3 mM KCl, 5 mM HEPES, 0.5 mM BaCl2, 10 uM EDTA, 100 uM glutamate, 50 uM glycine (pH either 6.9 or 7.6 adjusted with NAOH or HCl as appropriate). […]

[6] = rats; Dogan et al.; cited from earlier work
[7] = cats; highest dose tested; Gotti et al.; cited from earlier work
[8] = test system: primary cultures of rat cerebral cortex; settings: pH 6.5 vs pH 7.5; Mott et al. 1998; cited from earlier work
[9] = test system: AMPA receptors; test: Two electrode voltage clamp, Xenopus oocytes injected with AMPA receptor subunits; assay type: cell-based; settings: 3 uM coadministered with glutamate
Procedure: (§2) Glutamate or domoate induced current recordings were performed using two electrode voltage clamp, and 3 uM of Compound 93-4 coadministered with agonist (glutamate for AMPA receptors, domoate for kainate receptors).

[10] = test system: kainate receptors; test: Two electrode voltage clamp, Xenopus oocytes injected with kainate receptor subunits; assay type: cell-based; settings: 3 uM coadministered with domoate
Procedure: as §2

[11] = target: T2, NR1/NR2B (Rattus norvegicus, UniProt P35439+Q00960); test: NMDA receptor mediated currents, NR1/NR2B; assay type: cell-based; settings: 3 uM; NR1/NR2B subunits
T2 construct: expressed in transfected cells
T2 sequence (Q00960 27-1482, other chains not shown): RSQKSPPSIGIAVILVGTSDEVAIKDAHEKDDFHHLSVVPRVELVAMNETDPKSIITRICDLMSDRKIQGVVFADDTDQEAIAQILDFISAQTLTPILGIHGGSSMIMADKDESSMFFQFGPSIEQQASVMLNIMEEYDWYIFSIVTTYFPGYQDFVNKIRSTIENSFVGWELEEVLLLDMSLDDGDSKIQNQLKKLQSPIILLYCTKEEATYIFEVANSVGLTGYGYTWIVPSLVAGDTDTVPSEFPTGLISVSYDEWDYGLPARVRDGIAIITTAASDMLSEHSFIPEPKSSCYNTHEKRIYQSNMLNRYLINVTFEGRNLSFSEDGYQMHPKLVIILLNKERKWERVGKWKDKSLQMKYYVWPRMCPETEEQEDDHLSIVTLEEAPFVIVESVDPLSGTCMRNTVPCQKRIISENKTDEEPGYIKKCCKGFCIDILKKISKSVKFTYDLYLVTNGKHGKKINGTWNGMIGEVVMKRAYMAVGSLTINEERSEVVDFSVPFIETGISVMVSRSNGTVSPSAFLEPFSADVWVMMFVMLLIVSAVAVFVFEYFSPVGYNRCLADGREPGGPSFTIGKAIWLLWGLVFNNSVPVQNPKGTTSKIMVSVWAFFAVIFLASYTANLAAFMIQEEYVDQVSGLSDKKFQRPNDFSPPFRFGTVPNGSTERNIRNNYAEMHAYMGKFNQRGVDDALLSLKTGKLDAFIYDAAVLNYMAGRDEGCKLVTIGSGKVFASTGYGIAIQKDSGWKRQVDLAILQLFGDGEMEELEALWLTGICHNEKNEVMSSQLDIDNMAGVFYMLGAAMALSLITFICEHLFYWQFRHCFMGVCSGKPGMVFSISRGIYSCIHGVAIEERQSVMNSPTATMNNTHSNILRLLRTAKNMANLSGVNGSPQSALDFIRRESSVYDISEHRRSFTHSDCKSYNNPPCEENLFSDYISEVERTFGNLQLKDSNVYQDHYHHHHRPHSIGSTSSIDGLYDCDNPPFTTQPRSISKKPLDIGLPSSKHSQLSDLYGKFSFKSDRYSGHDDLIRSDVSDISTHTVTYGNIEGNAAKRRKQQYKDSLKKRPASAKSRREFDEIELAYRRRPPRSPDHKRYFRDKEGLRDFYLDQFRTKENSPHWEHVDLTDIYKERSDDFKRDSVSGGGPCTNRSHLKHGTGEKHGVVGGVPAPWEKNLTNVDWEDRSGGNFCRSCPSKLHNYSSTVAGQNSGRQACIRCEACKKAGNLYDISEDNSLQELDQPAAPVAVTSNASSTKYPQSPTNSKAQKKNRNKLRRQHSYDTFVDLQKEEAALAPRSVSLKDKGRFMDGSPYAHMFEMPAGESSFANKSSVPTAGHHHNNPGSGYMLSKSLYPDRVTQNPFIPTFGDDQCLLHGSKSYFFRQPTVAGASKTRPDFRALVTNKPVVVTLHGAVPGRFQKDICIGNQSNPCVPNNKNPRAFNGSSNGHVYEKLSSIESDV

[12] = target: T3, NR1/NR2D (Rattus norvegicus, UniProt P35439+Q62645); test: NMDA receptor mediated currents, NR1/NR2D; assay type: cell-based; settings: 3 uM
T3 construct: expressed in transfected cells
T3 sequence (Q62645 28-1323, other chains not shown): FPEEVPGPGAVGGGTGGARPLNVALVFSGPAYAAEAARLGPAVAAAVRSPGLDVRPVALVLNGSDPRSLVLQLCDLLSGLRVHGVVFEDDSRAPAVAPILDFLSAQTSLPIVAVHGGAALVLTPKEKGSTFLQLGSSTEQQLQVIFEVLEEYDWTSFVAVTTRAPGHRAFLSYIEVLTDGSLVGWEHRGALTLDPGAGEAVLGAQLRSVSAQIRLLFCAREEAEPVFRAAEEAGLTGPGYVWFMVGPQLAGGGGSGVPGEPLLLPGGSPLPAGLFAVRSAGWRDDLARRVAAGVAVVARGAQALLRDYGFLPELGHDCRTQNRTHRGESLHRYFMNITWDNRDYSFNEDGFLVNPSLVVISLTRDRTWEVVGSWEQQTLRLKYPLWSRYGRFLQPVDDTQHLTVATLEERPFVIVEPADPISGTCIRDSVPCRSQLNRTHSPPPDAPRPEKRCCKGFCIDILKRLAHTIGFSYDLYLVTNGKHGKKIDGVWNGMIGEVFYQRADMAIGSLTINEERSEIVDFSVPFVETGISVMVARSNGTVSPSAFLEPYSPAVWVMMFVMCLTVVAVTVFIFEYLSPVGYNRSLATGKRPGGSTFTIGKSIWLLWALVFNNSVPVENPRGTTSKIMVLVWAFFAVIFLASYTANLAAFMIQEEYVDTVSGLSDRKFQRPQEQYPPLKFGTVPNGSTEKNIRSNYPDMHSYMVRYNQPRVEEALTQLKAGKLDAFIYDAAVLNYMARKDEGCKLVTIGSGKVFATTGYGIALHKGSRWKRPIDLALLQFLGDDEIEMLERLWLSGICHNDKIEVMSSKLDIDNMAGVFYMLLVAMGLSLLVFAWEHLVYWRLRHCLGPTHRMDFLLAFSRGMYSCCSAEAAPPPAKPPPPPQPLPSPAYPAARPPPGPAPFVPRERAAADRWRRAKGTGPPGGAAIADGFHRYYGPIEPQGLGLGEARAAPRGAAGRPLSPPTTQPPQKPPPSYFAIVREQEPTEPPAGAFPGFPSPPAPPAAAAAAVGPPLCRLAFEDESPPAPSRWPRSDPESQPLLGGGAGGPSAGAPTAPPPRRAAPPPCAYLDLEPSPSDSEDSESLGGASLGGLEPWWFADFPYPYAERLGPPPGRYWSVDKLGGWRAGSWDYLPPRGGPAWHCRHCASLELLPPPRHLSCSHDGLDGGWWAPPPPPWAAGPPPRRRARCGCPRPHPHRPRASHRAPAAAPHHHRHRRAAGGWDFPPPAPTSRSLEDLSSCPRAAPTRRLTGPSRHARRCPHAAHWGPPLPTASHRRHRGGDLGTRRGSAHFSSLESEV

[13] = target: T1, NR1/NR2A; test: NMDA receptor mediated currents, NR1/NR2A; assay type: cell-based; design: expressed in transfected cells; settings: 3 uM

OC(CN1CCC(Cc2ccc(F)cc2)CC1)c1ccc(Cl)cc1 (stereo not shown) [SL 82.0715]
decrease in infarct volume [1]: 36-48%

NCC1(CC(=O)O)CCCCC1 [Gabapentin, reference compound]
Injured paw - von Frey threshold ([2]; 100 mg/kg i.p., 30 min): 6.0 ± 1.1 | Injured paw - von Frey threshold ([2]; 100 mg/kg i.p., 60 min): 11.1 ± 1.5 | Injured paw - von Frey threshold ([2]; 100 mg/kg i.p., 120 min): 13.6 ± 0.9 | Injured paw - von Frey threshold ([2]; 100 mg/kg i.p., 240 min): 6.6 ± 1.3 | Injured paw - von Frey threshold ([2]; 100 mg/kg i.p., Baseline): 1.9 ± 0.2 | Side Effects: stretching/writhing (animals affected/group) ([3]; 100 mg/kg i.p., for first 5 min): 1/10 stretching/writhing (for first 5 min)

(+)MK801 [reference compound]
effects on locomotor activity (positive control) [4]: stereotypical biphasic effects on locomotor activity | effects on locomotor activity (positive control) ([4]; listed as (+)MK-801): induced locomotor activity at low doses and ataxia at higher doses

C[C@@]12N[C@@H](Cc3ccccc31)c1ccccc12 [(−)MK801, reference compound]
fold less potent than (+)MK801 in causing the induction of locomotor activity ([4]; compared to vehicle injected control animals): at least 10 fold | mean within the shaded area (criteria for improved drug performance) for NR1/NR2A [5]: fall within the shaded area

CC(C(O)c1ccc(O)cc1)N1CCC(Cc2ccccc2)CC1 (stereo not shown) [Ifenprodil]
decrease in infarct volume [6]: 22% | decrease infarct volume [7]: 42% | pH dependence of potency [8]: more potent at lower pH (6.5) than higher pH (7.5)

CCN(CCc1ccc(Cl)c(Cl)c1)C[C@H](O)COc1ccc(NS(C)(=O)=O)cc1 [Compound 93-5]
effects on locomotor activity ([4]; 3-300 mg/kg IP): no significant effects

CCCCN(CCc1ccc(Cl)c(Cl)c1)C[C@H](O)COc1ccc(NS(C)(=O)=O)cc1 [Compound 93-31]
effects on locomotor activity ([4]; 3-300 mg/kg IP): no significant effects | effect on locomotor activity index ([4]; IP, doses up to 300 mg/kg, FIG. 5): no significant effect | analgesic effect, injured paw ([2]; 30 mg/kg i.p., any time point studied): no analgesic effect | Injured paw - von Frey threshold ([2]; 30 mg/kg i.p., 30 min): 1.9 ± 0.3 | Injured paw - von Frey threshold ([2]; 30 mg/kg i.p., 60 min): 1.7 ± 0.1 | Injured paw - von Frey threshold ([2]; 30 mg/kg i.p., 120 min): 0.8 ± 0.2 | Injured paw - von Frey threshold ([2]; 30 mg/kg i.p., 240 min): 1.1 ± 0.3 | Injured paw - von Frey threshold ([2]; 30 mg/kg i.p., Baseline): 2.4 ± 0.4 | analgesia / attenuation of mechanical allodynia, injured paw ([2]; 100 mg/kg i.p.): observable analgesia at 30 and 60 min; also recorded: appeared to attenuate mechanical allodynia; also recorded: attenuated mechanical allodynia | duration of action ([2]; 100 mg/kg i.p.): 60 min | onset ([2]; 100 mg/kg i.p.): 30 min | peak threshold relative to the normal paw ([2]; 100 mg/kg i.p.): approximately half of that seen in the normal paw | Injured paw - von Frey threshold ([2]; 100 mg/kg i.p., 30 min): 9.3 ± 1.5 | Injured paw - von Frey threshold ([2]; 100 mg/kg i.p., 60 min): 8.9 ± 1.7 | Injured paw - von Frey threshold ([2]; 100 mg/kg i.p., 120 min): 1.9 ± 0.3 | Injured paw - von Frey threshold ([2]; 100 mg/kg i.p., 240 min): 0.8 ± 0.2 | Injured paw - von Frey threshold ([2]; 100 mg/kg i.p., Baseline): 1.7 ± 0.3 | effect on von Frey thresholds measured in the normal paw ([2]; 30 and 100 mg/kg i.p.): no effect on the normal paw | ED50 ([2]; Rattus norvegicus, ip, assuming complete reversal may be achieved with higher doses): ~100 mg/kg | Side Effects: stretching/writhing (animals affected/group) ([3]; 30 mg/kg i.p.): 0/10 stretching/writhing

CS(=O)(=O)Nc1ccc(OC[C@H](O)CN(CCc2ccc(Cl)c(Cl)c2)Cc2ccccc2O)cc1 [Compound 93-40]
effects on locomotor activity ([4]; 30 mg/kg IP): no significant effects

CC(C)CN(CCc1ccc(Cl)c(Cl)c1)C[C@H](O)COc1ccc(NS(C)(=O)=O)cc1 [Compound 93-97]
Injured paw - von Frey threshold ([2]; 30 mg/kg i.p., 30 min): 1.6 ± 0.3 | Injured paw - von Frey threshold ([2]; 30 mg/kg i.p., 60 min): 1.1 ± 0.1 | Injured paw - von Frey threshold ([2]; 30 mg/kg i.p., 120 min): 0.9 ± 0.1 | Injured paw - von Frey threshold ([2]; 30 mg/kg i.p., 240 min): 1.0 ± 0.2 | Injured paw - von Frey threshold ([2]; 30 mg/kg i.p., Baseline): 1.9 ± 0.2 | Injured paw - von Frey threshold ([2]; 100 mg/kg i.p., 30 min): 1.1 ± 0.2 | Injured paw - von Frey threshold ([2]; 100 mg/kg i.p., 60 min): 1.4 ± 0.3 | Injured paw - von Frey threshold ([2]; 100 mg/kg i.p., 120 min): 1.0 ± 0.1 | Injured paw - von Frey threshold ([2]; 100 mg/kg i.p., 240 min): 0.8 ± 0.2 | Injured paw - von Frey threshold ([2]; 100 mg/kg i.p., Baseline): 1.2 ± 0.1 | effect on von Frey thresholds measured in the normal paw ([2]; 30 and 100 mg/kg i.p.): no effect on normal paw | analgesic effect / attenuation of mechanical allodynia, injured paw ([2]; 30 and 100 mg/kg i.p., any time point studied): no analgesic effect; also recorded: failed to attenuate mechanical allodynia | Side Effects: stretching/writhing (animals affected/group) ([3]; 30 mg/kg i.p.): 2/10 stretching/writhing (for first 5 min)

CS(=O)(=O)Nc1ccc(OC[C@@H](O)CN(CCO)CCc2ccc(Cl)c(Cl)c2)cc1 [Compound 93-8]
effects on locomotor activity ([4]; 30-300 mg/kg IP): no significant effects

CS(=O)(=O)Nc1ccc(OC[C@@H](O)CNCCc2ccc(Cl)c(Cl)c2)cc1 [Compound 93-4]
reduction in the agonist induced response [9]: No reduction | reduction in the agonist induced response [10]: No reduction | inhibiting NMDA receptor mediated currents [11]: effective at inhibiting | inhibiting NMDA receptor mediated currents [12]: not NR1/NR2A or NR1/NR2D | effects on locomotor activity ([4]; 3-300 mg/kg IP): no significant effects | inhibiting NMDA receptor mediated currents [13]: not NR1/NR2A

CNC1(c2ccccc2Cl)CCCCC1=O (stereo not shown) [ketamine]
mean within the shaded area (criteria for improved drug performance) for NR1/NR2A [5]: fall within the shaded area

CS(=O)(=O)Nc1ccc(OCC(O)CN(CCc2ccc(Cl)c(Cl)c2)Cc2cccc(O)c2)cc1 (stereo not shown) [Compound 93-41]
effects on locomotor activity ([4]; 30-300 mg/kg IP): no significant effects
